# “And” between values parts separate entries of the source, which are not always exact repeats. Equal values may be shown once. “Also recorded” adds a separate entry of the source.
# Columns and labels:
# IL-1 B = assay: Phase 2 study: plasma Th17 related cytokines (MSD U-Plex), IL-1 B; format: in vivo, human; conditions: BIT225 cohort vs placebo (data not shown)
# Protocol: (§1) A Phase 2, multi-centre, randomized, placebo-controlled, double-blind study of BIT225 in combination with ART (Atripla—efavirenz/emtricitabine/tenofovir DF) was undertaken in patients with HIV-1 infection that were treatment-naive. Patients were randomized into two groups on a 2:1 basis, with one group receiving BIT225 (100 mg QD; 6 patients: placebo; 3 patients), and one group receiving BIT225 (200 mg QD, 18 patients: placebo; 9 patients), with a total of 36 patients enrolled in the trial. The 100 mg BIT225 group was primarily included for detailed PK analyses due to limitations on the quantity of blood that could be drawn at time points coinciding with analyses of viral load decay, which were limited to the 200 mg cohort. All subjects received the standard dose of ART in addition to 12 weeks BIT225 or placebo study treatment. […]
# (§2) Th17 cells regulate other immune cells, specifically neutrophils and macrophages, by secreting a variety of cytokines in response to pathogens. Plasma samples were analysed to determine the level of the Th17 related cytokines (IL-21, IFN-γ, IL-1p, IL-6, IL-10, IL-17A, IL-17E/IL-25, IL-17F, IL-22, and TNF-α) during the 12 week treatment period using electro-chemiluminescence MSD U-Plex Biomarker Group Th17 (Human Combo 2) Human Multiplex Assay (MesoScaleDiscovery, MD, USA).
# IL-10 = assay: Phase 2 study: plasma Th17 related cytokines (MSD U-Plex), IL-10; format: in vivo, human; conditions: BIT225 cohort vs placebo (data not shown)
# Protocol: as §1, §2
# IL-6 = assay: Phase 2 study: plasma Th17 related cytokines (MSD U-Plex), IL-6; format: in vivo, human
# Protocol: as §1, §2
# IL-21 = assay: Phase 2 study: plasma Th17 related cytokines (MSD U-Plex), IL-21; format: in vivo, human
# Protocol: as §1, §2
# [1] = Phase 2 study: pharmacokinetics (plasma, LC/MS/MS); format: in vivo, human
# Protocol: (§3) A Phase 2, multi-centre, randomized, placebo-controlled, double-blind study of BIT225 in combination with ART (Atripla—efavirenz/emtricitabine/tenofovir DF) was undertaken in patients with HIV-1 infection that were treatment-naive. Patients were randomized into two groups on a 2:1 basis, with one group receiving BIT225 (100 mg QD; 6 patients: placebo; 3 patients), and one group receiving BIT225 (200 mg QD, 18 patients: placebo; 9 patients), with a total of 36 patients enrolled in the trial. The 100 mg BIT225 group was primarily included for detailed PK analyses due to limitations on the quantity of blood that could be drawn at time points coinciding with analyses of viral load decay, which were limited to the 200 mg cohort. All subjects received the standard dose of ART in addition to 12 weeks BIT225 or placebo study treatment. At the conclusion of the trial, patients remained on ART as per standard treatment protocols. HIV-1-infected subjects, males and females, aged 18 to 65 years inclusive, who were naive to ART were recruited. Individuals had HIV-1 RNA>5,000 copies/mL and CD4^+ T cell count>100 cells/mm^3.
# There were two treatment cohorts. The first cohort received 100 mg capsule of BIT225 or placebo QD with ART for 12 weeks. Cohort 2 were given two 100 mg capsules BIT225 (200 mg BIT225) or placebo QD with ART. ART was 1 fixed dose combination tablet of Atripla. […]
# NK cells = assay: Phase 2 study: NK cell numbers by flow cytometry; format: in vivo, human
# Protocol: as §3
# (§4) There were two treatment cohorts. The first cohort received 100 mg capsule of BIT225 or placebo QD with ART for 12 weeks. Cohort 2 were given two 100 mg capsules BIT225 (200 mg BIT225) or placebo QD with ART. ART was 1 fixed dose combination tablet of Atripla.
# Analyses for cell populations (T cells and NK cells) were performed in real time by flow cytometry (CD4^+, CD8^+, CD38^+, and HLA-DR^+ for T cells, and CD16^+, CD45^+ and CD56^+ for NK cells). ELISA assays were run for sCD163 and Th17 related cytokines. Immune activation markers measured by flow cytometry were performed in real time alongside CD4^+, CD8^+ and CD14^+ enumeration at HIV-NAT laboratory, Bangkok Thailand.
# [2] = system: CD86 on MDM infected with HIV-1 NL4-3; assay: Plasma membrane CD86 expression on HIV-1 NL4-3 infected MDM, flow cytometry; format: cell-based, human
# Protocol: (§5) Method of virus stock generation is as described by Bobardt et al., PNAS, 2008; 105(14):5525-5530. Briefly, 293T cells were transfected with proviral plasmid (9 μg) and vesicular stomatitis virus G (VSV-G) envelope plasmid (1 μg). At day 2, VSV-G pseudotyped viruses (5 μg of p24) were harvested and used to acutely infect Jurkat cells (2×10^6 cells). Two days after infection, viruses were harvested, and p24 content was measured by ELISA (PerkinElmer). Viral infections were conducted in triplicate with 10 or 100 ng of p24 derived from transfected 293T cells. The following proviral constructs were used: wild-type HIV-1 pNL4.3 […] tropic[WT], pNL4.3 ANef, pNL4.3 AVpu, pNL4.3 ANefAVpu, and HIV-1 pBaL-1 CCR5(R5) tropic[WT].
# (§6) Blood-derived CD4^+ T lymphocytes and MDM were isolated as described in Saphire et al., J Virol 2001, 75:9187-9200. CD4^+ T cells and monocytes were extracted from the blood of three donors that were CCR5-Delta32 negative. […]
# (§7) Cells were treated with 3 μM BIT225 or DMSO control, and expression of CD28, CCR7, CD80 and CD86 measured by flow cytometry at 24, 48 and 72 hour time points. […]
# soluble CD163 (sCD163) = assay: Phase 2 study: plasma sCD163 by Macro163 ELISA; format: in vivo, human
# Protocol: as §3
# (§8) There were two treatment cohorts. The first cohort received 100 mg capsule of BIT225 or placebo QD with ART for 12 weeks. […]
# The macrophage and monocyte activation marker sCD163 was measured in plasma by Macro163™ ELISA (IQ Products, Groningen, The Netherlands).
# [3] = system: CCR7 on CD4^+ T cells infected with HIV-1 NL4-3; assay: Plasma membrane CCR7 expression on HIV-1 NL4-3 infected CD4+ T cells, flow cytometry; format: cell-based, human
# Protocol: as §5
# (§9) CD4^+ T cell isolation as previously described by Geijtenbeek et al., Cell, 2000, 100:587-597. Human PBMC were purified from fresh blood by banding on Ficoll-Hypaque (30 min, 800 g, 25° C.; Amersham Biosciences). Primary human CD4^+ T cells were purified from PBMC by positive selection with anti-CD4 Dynabeads and subsequent release using Detachabead (Dynal Biotech). […]
# as §7
# TNF-α = assay: Phase 2 study: plasma Th17 related cytokines (MSD U-Plex), TNF-α; format: in vivo, human; conditions: BIT225 cohort vs placebo (data not shown)
# Protocol: as §1, §2
# IL-17F = assay: Phase 2 study: plasma Th17 related cytokines (MSD U-Plex), IL-17F; format: in vivo, human; conditions: BIT225 cohort vs placebo (data not shown)
# Protocol: as §1, §2
# [4] = system: activated CD8^+ cell (CD8^+/HLA-DR^+/CD38^+); assay: Phase 2 study: activated CD8+ T cell numbers by flow cytometry; format: in vivo, human; conditions: 200 mg BIT225 QD + ART vs placebo + ART, 12 weeks; ±29 SEM; P<0.01
# Protocol: as §3, with “Individuals had HIV-1 RNA>5,000 copies/mL and CD4^+ T cell count>100 cells/mm^3.” left out
# (§10) Analyses for cell populations (T cells and NK cells) were performed in real time by flow cytometry (CD4^+, CD8^+, CD38^+, and HLA-DR^+ for T cells, and CD16^+, CD45^+ and CD56^+ for NK cells). […] Immune activation markers measured by flow cytometry were performed in real time alongside CD4^+, CD8^+ and CD14^+ enumeration at HIV-NAT laboratory, Bangkok Thailand.
# IFN-γ = assay: Phase 2 study: plasma Th17 related cytokines (MSD U-Plex), IFN-γ; format: in vivo, human
# Protocol: as §1, §2
# [5] = Phase 2 study: safety and tolerability; format: in vivo, human
# Protocol: as §3, §4
# The safety of the experimental treatments was assessed by monitoring adverse events, vital signs, ECG parameters, clinical laboratory tests (haematology, clinical chemistry, coagulation and urinalysis) and physical examinations.
# [6] = system: activated CD4^+ T cells (CD4^+/HLA-DR^+/CD38^+); assay: Phase 2 study: activated CD4+ T cell numbers by flow cytometry; format: in vivo, human
# Protocol: as §3, with “Individuals had HIV-1 RNA>5,000 copies/mL and CD4^+ T cell count>100 cells/mm^3.” left out
# as §10
# HIV-1 = assay: Phase 2 study: plasma HIV-1 viral load decay (Roche COBAS TaqMan HIV-1); format: in vivo, human; conditions: 200 mg BIT225 QD + ART vs placebo QD + ART, 12 weeks, treatment-naive HIV-1 patients
# Protocol: as §3, §8
# HIV-1 plasma viral load was determined in real time by Roche COBAS TaqMan HIV-1 currently approved version (Roche Diagnostics).
# [7] = system: CD80 on MDM infected with HIV-1 NL4-3; assay: Plasma membrane CD80 expression on HIV-1 NL4-3 infected MDM, flow cytometry; format: cell-based, human
# Protocol: as §5, §6, §7
# [8] = system: CD28 on CD4^+ T cells infected with HIV-1 NL4-3; assay: Plasma membrane CD28 expression on HIV-1 NL4-3 infected CD4+ T cells, flow cytometry; format: cell-based, human; conditions: 3 μM BIT225, WT HIV-1 NL4-3 infected cells, up to 72 h; dependent on Vpu expression
# Protocol: as §5, §9, §7
# [9] = 3 μM BIT225, ΔNefΔVpu HIV-1 NL4-3 double mutant
structure (smiles),measurement,setting,value
"Cn1cc(-c2cccc3cc(C(=O)NC(=N)N)ccc23)cn1 [BIT225, N-carbamimidoyl-5-(1-methylpyrazol-4-yl)naphthalene-2-carboxamide]",IL-1 B production versus placebo,IL-1 B,no statistical differences
same,IL-10 levels versus placebo over 12 weeks,IL-10,not statistically significant
same,Subjects with transient spike of plasma IL-6 in first 3 weeks,IL-6; BIT225 + ART,8 of 18
same,"IL-6 response after 3 weeks, change from baseline (Log10)",IL-6; BIT225 cohort vs placebo (data not shown),remained higher than placebo
same,Plasma IL-21 versus placebo over the first 3 weeks (ANOVA),"IL-21; 200 mg BIT225 QD + ART vs placebo + ART, P=0.02",statistically significant increase; also recorded: statistically significantly increased
same,Time of peak plasma IL-21,IL-21; BIT225 + ART,3 week
same,Effect of BIT225 on the PK characteristics of Atripla (ART),[1]; co-administration (results not shown),did not significantly affect; also recorded: no significant impact
same,Plasma exposures,"[1]; intensive PK sampling, 100 mg cohort",within the expected timeframes and concentration ranges
same,"Estimated average difference in NK cells, BIT225 cohort versus placebo (two-factor linear model)","NK cells; 200 mg BIT225 QD + ART vs placebo + ART, 12 weeks, SEM, P<0.01",71 cells/ml and 71±23 cells/ml
same,Time to peak of NK cell numbers after commencing treatment,NK cells; BIT225 + ART,24 to 48 h
same,NK cell numbers during treatment versus placebo,"NK cells; BIT225 + ART, 12-week treatment",remained higher
same,Plasma membrane CD86 expression on MDM,"[2]; 3 μM BIT225, WT or ΔNef virus infected cells",partial restoration
same,Plasma membrane CD86 expression on MDM,[2]; [9],no observable effect
same,Linear model estimate β1 of larger overall decrease in sCD163 for BIT225 versus placebo,"soluble CD163 (sCD163); 200 mg BIT225 QD + ART vs placebo + ART, 12 weeks, ±SE, P=0.036",208 ± 99 ng/mL
same,sCD163 over 12 weeks compared to ART alone,soluble CD163 (sCD163); BIT225 + ART vs ART + placebo,significantly reduced; also recorded: statistically significant decline
same,CCR7 expression on CD4+ T cells,"[3]; 3 μM BIT225, WT HIV-1 NL4-3-infected cells, dependent on Vpu expression",partial restoration
same,CCR7 downregulation by Nef expression alone,"[3]; 3 μM BIT225, ΔVpu virus",not affected
same,TNF-α versus placebo,TNF-α,no statistical differences
same,IL-17F production versus placebo,IL-17F,no difference between cohorts
same,"Estimated average difference in activated CD8+ T cells, BIT225 cohort versus placebo (two-factor linear model)",[4],85 cells/ml
same,Subjects with IFN-γ transient spike,IFN-γ; BIT225 cohort (data not shown),16 of 18
same,IFN-γ cohort mean response,IFN-γ; BIT225 cohort + ART,transient spike at Day 14
same,Tolerability / safety,"[5]; 100 and 200 mg QD cohorts with ART, 12 weeks",safe and well tolerated
same,"QTcB in one discontinued subject (mild QTcB prolongation, Day 17), considered not related to BIT225 or Atripla",[5]; BIT225 100 mg cohort,> 480 ms
same,Subjects who discontinued the study early due to AEs,[5]; BIT225 100 mg cohort,Two
same,Serious AEs or deaths,[5]; all cohorts,no serious AEs (SAEs) or deaths
same,Time activated CD4+ T cells remained elevated,[6]; 100 mg BIT225 QD + ART (data not shown),approximately 50 days
same,Change from baseline of activated CD4+ T cell numbers compared to placebo,"[6]; 200 mg BIT225 QD + ART vs placebo + ART, 12 weeks",sustained delay in decline; also recorded: statistically significant delayed reduction
same,Plasma HIV-1 RNA decline versus placebo,HIV-1,declined in a similar manner
same,Plasma membrane CD80 expression on MDM,"[7]; 3 μM BIT225, WT or ΔNef virus infected cells (express Vpu)",partial restoration
same,Plasma membrane CD80 expression on MDM,[7]; [9],no observable effect
same,CD28 expression on CD4+ T cells,[8],partial restoration
